Values belong to the compound of their own block, whether it stands above or below them.
Columns and labels:
[1] = Dissociation constant, pKa of the compound; format: physicochemical
[2] = tested on: Meriones unguiculatus; test: Inhibition of GR-73632-induced foot-tapping in iv dosed gerbils after 24 hrs; format: functional; settings: read-out: ID50 (the source's name)
[3] = tested on: Cavia porcellus; test: Inhibition of resiniferatoxin-induced systemic vascular leakage in po dosed guinea pig […] model after 24 hrs; format: functional
[4] = target: Substance-P receptor (Homo sapiens, UniProt P25103); test: Inhibition of NK1 receptor
Substance-P receptor, sequence (P25103 whole entry): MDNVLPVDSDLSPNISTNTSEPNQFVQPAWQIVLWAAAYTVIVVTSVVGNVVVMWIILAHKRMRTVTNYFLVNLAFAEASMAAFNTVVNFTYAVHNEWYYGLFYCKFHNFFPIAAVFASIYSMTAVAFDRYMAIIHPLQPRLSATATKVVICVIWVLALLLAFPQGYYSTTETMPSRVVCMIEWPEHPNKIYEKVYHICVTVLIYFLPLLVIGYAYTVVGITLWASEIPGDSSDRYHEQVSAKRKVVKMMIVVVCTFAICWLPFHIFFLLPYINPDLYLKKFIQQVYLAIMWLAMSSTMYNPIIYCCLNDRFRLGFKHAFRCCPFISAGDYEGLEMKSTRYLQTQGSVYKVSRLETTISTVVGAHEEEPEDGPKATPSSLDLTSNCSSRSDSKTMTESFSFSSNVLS

[5] = target: T1, Cathepsin K (Homo sapiens, UniProt P43235); test: Inhibition of cathepsin K
T1 sequence (P43235 whole entry): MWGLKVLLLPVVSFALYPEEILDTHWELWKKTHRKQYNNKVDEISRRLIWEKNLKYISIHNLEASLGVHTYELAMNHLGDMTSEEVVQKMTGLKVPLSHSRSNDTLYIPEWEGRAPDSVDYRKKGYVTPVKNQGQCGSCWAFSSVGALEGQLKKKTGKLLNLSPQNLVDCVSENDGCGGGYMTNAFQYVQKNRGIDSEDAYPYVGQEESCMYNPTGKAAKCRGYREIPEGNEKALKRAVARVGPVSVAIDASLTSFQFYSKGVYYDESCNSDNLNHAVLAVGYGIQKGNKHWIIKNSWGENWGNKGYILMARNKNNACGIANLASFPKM

[6] = Half life in rat plasma at 2 mg/kg, po; format: ADME, organism-based; design: dose 2 mg/kg, route oral
[7] = Plasma clearance in rat at 2 mg/kg, po; format: ADME, organism-based; design: dose 2 mg/kg, route oral
[8] = Cmax in rat at 2 mg/kg, po; format: ADME, organism-based; design: dose 2 mg/kg, route oral; settings: in vivo
[9] = Oral bioavailability in rat; format: ADME, organism-based; settings: in vivo
[10] = target: Cannabinoid receptor 1 (Homo sapiens, UniProt P21554); test: Displacement of [3H]CP-55940 from human CB1 receptor expressed in CHO cells; format: cell-based
Cannabinoid receptor 1, sequence (P21554 whole entry): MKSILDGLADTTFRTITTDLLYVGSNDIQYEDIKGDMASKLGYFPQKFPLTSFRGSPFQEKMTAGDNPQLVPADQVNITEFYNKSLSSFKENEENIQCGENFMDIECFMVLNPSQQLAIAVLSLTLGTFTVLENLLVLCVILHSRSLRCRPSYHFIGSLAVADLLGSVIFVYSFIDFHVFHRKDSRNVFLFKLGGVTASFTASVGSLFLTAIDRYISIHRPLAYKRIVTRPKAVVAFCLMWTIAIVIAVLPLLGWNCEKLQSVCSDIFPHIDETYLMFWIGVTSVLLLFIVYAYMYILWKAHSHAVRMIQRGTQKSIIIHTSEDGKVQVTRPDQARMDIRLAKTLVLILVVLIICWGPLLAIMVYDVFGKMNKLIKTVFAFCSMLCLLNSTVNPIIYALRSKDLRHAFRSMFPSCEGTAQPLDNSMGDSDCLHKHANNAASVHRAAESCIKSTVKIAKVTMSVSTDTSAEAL

[11] = Half life in rat plasma at 10 mg/kg, po; format: ADME, organism-based; design: dose 10 mg/kg, route oral
[12] = Metabolic stability in rat hepatocytes after 2 hrs
[13] = tested on: Liver microsomes; test: Metabolic stability in human liver microsomes assessed as covalent protein binding per mg of protein; format: ADME, Microsome
[14] = Plasma clearance in rat at 10 mg/kg, po; format: ADME, organism-based; design: dose 10 mg/kg, route oral
[15] = Drug level in duct cannulated rat bile at 5 mg/kg, iv; format: ADME, organism-based; design: dose 5 mg/kg, route intravenous; settings: in vivo, read-out: Drug uptake
[16] = target: Prothrombin (Homo sapiens, UniProt P00734); test: Inhibition of human thrombin
[17] = target: T2, Prostaglandin D2 receptor (Homo sapiens, UniProt Q13258)
T2 sequence (Q13258 whole entry): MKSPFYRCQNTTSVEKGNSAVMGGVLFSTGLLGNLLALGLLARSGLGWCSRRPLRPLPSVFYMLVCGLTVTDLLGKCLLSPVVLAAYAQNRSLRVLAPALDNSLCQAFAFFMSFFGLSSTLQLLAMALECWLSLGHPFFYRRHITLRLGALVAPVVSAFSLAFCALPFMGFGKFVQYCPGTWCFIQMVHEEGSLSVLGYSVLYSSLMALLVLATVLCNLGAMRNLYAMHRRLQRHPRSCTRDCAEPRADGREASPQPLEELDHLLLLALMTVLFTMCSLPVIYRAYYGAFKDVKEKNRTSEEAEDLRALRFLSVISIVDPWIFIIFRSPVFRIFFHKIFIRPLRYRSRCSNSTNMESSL

[18] = Cmax in rat at 10 mg/kg, po; format: ADME, organism-based; design: dose 10 mg/kg, route oral; settings: in vivo
[19] = Half life in human plasma; format: ADME, organism-based

Structure (SMILES): Nc1cccc(C(F)(F)F)c1
- pKa [1]: 3.49

Structure (SMILES): Nc1ccc(C(F)(F)F)cc1
- pKa [1]: 2.57

Structure (SMILES): Fc1ccccn1
- pKa [1]: -0.44

Structure (SMILES): Fc1cccnc1
- pKa [1]: 2.97

Structure (SMILES): Fc1cnc2ccccc2c1
- pKa [1]: 2.36

Structure (SMILES): Fc1cccc2ncccc12
- pKa [1]: 3.68

Structure (SMILES): Fc1ccc2ncccc2c1
- pKa [1]: 4

Structure (SMILES): Fc1ccc2cccnc2c1
- pKa [1]: 4.04

Structure (SMILES): O=c1[nH]nc(CN2CCO[C@H](OCc3cc(C(F)(F)F)cc(C(F)(F)F)c3)[C@@H]2c2ccc(F)cc2)[nH]1
- ED50 [2]: 1.24 mg/kg
- ID90 [3]: 2.3 mg/kg

Structure (SMILES): C[C@@H](O[C@H]1OCCN(Cc2n[nH]c(=O)[nH]2)[C@H]1c1ccccc1)c1cc(C(F)(F)F)cc(C(F)(F)F)c1
- ED50 [2]: 1.11 mg/kg
- IC50 [4]: 0.09 nM
- ID90 [3]: 2.3 mg/kg

Structure (SMILES): Nc1ccccc1F
- pKa [1]: 3.2

Structure (SMILES): Oc1ccccc1F
- pKa [1]: 8.73

Structure (SMILES): Nc1ccc(F)cc1
- pKa [1]: 4.65

Structure (SMILES): O=C(O)CC(F)(F)F
- pKa [1]: 3.06

Structure (SMILES): O=C(O)C(F)F
- pKa [1]: 1.24

Structure (SMILES): Cc1nnn[nH]1
- pKa [1]: 4.9

Structure (SMILES): N=C(N)c1ccc([C@H]2C3C(=O)N(Cc4ccccc4F)C(=O)C3C3CCCN32)cc1 (some centres not stated)
- Ki [16]: 500 nM

Structure (SMILES): N=C(N)c1ccc([C@H]2C3C(=O)N(Cc4cccc(F)c4)C(=O)C3C3CCCN32)cc1 (some centres not stated)
- Ki [16]: 360 nM

Structure (SMILES): FC(F)(F)c1nnn[nH]1
- pKa [1]: 1.7

Structure (SMILES): O=c1[nH]nc(CN2CCO[C@H](OCc3cc(C(F)(F)F)cc(C(F)(F)F)c3)[C@@H]2c2ccccc2)[nH]1
- ED50 [2]: 2.88 mg/kg
- ID90 [3]: 5.4 mg/kg

Structure (SMILES): Oc1cccc(F)c1
- pKa [1]: 9.29

Structure (SMILES): C[C@@H](O[C@H]1OCCN(Cc2n[nH]c(=O)[nH]2)[C@H]1c1ccc(F)cc1)c1cc(C(F)(F)F)cc(C(F)(F)F)c1 [APREPITANT]
- ED50 [2]: 0.33 mg/kg
- ID90 [3]: 1.8 mg/kg

Structure (SMILES): CS(=O)(=O)c1cc(F)cc2c3c(n(Cc4ccc(Cl)cc4)c12)C(CC(=O)O)CC3 (stereo not drawn) [DIASTEREOMER 2]
- half-life [11]: 420 min
- remaining at 2 h [12]: 32%
- CL/F [14]: 2.4 mL/min/kg
- Cmax [18]: 39 µM
- concentration [15]: 103 µM
- bioavailability [9]: 79%

Structure (SMILES): OCC(F)(F)F [TRIFLUOROETHANOL]
- pKa [1]: 12.4

Further lines, results first:

- pKa [1]: 3.27
Structure (SMILES): O=C(O)c1ccccc1F

- pKa [1]: 3.1
Structure (SMILES): Fc1cccc2cccnc12

- IC50 [5]: ≤ 0.005 nM
Structure (SMILES): CC(C)C[C@H](N[C@@H](c1ccc(-c2ccc(N3CCNCC3)cc2)cc1)C(F)(F)F)C(=O)NCC#N

- half-life [6]: 96 min
- CL/F [7]: 43 mL/min/kg
Structure (SMILES): N[C@@H](CC(=O)N1CCn2c(nnc2C(F)(F)F)C1)Cc1cc(F)ccc1F

- half-life [6]: 168 min
- Cmax [8]: 180 nM
- CL/F [7]: 33 mL/min/kg
- bioavailability [9]: 9%
Structure (SMILES): C[C@H](NC(=O)C(C)(C)Oc1ccccc1)[C@@H](Cc1ccc(Cl)cc1)c1ccccc1

- half-life [6]: 144 min
- Cmax [8]: 300 nM
- IC50 [10]: 1.47 nM
- CL/F [7]: 35 mL/min/kg
Structure (SMILES): C[C@H](NC(=O)C(C)(C)Oc1cc(F)cc(F)c1)[C@@H](Cc1ccc(Cl)cc1)c1ccccc1

- half-life [6]: 102 min
- CL/F [7]: 70 mL/min/kg
Structure (SMILES): CCc1nnc2n1CCN(C(=O)C[C@H](N)Cc1cc(F)c(F)cc1F)C2

- half-life [6]: 108 min
- CL/F [7]: 51 mL/min/kg
Structure (SMILES): N[C@@H](CC(=O)N1CCn2c(nnc2C(F)(F)F)C1)Cc1ccc(F)c(F)c1

- pKa [1]: 3.87
Structure (SMILES): O=C(O)c1cccc(F)c1

- pKa [1]: 4.14
Structure (SMILES): O=C(O)c1ccc(F)cc1

- IC50 [5]: 0.4 nM
Structure (SMILES): N#CCNC(=O)C1(NC(=O)c2ccc(-c3ccc(N4CCNCC4)cc3)cc2)CCCCC1

- half-life [6]: 132 min
- Cmax [8]: 1200 nM
- IC50 [10]: 0.54 nM
- CL/F [7]: 35 mL/min/kg
- bioavailability [9]: 100%
Structure (SMILES): C[C@H](NC(=O)C(C)(C)Oc1ccc(C(F)(F)F)cn1)[C@@H](Cc1ccc(Cl)cc1)c1ccccc1

- half-life [6]: 132 min
- Cmax [8]: 440 nM
- CL/F [7]: 25 mL/min/kg
- bioavailability [9]: 29%
Structure (SMILES): C[C@H](NC(=O)C(C)(C)Oc1ccccn1)[C@@H](Cc1ccc(Cl)cc1)c1ccccc1

- half-life [11]: 84 min
- remaining at 2 h [12]: 93%
- Activity [13]: 18 pmol/h
- CL/F [14]: 14 mL/min/kg
- concentration [15]: 1100 µM
- bioavailability [9]: 100%
Structure (SMILES): CC(=O)c1cc(S(C)(=O)=O)cc2c3c(n(Cc4ccc(Cl)cc4)c12)[C@@H](CC(=O)O)CC3

- half-life [6]: 60 min
- CL/F [7]: 40 mL/min/kg
Structure (SMILES): N[C@@H](CC(=O)N1CCn2cnnc2C1)Cc1cc(F)c(F)cc1F

- IC50 [5]: 5 nM
Structure (SMILES): N#CCNC(=O)C1(N[C@@H](c2ccc(-c3ccc(N4CCNCC4)cc3)cc2)C(F)(F)F)CCCCC1

- IC50 [5]: 0.015 nM
Structure (SMILES): CC(C)C[C@H](NC(=O)c1ccc(-c2ccc(N3CCNCC3)cc2)cc1)C(=O)NCC#N

- half-life [6]: 138 min
- CL/F [7]: 58 mL/min/kg
Structure (SMILES): N[C@@H](CC(=O)N1CCn2c(nnc2C(F)(F)C(F)(F)F)C1)Cc1cc(F)c(F)cc1F

- half-life [11]: 240 min
- Ki [17]: 1.1 nM
- remaining at 2 h [12]: 35%
- Activity [13]: 46 pmol/h
- CL/F [14]: 1.9 mL/min/kg
- Cmax [18]: 21 µM
- concentration [15]: 81 µM
- bioavailability [9]: 52%
Structure (SMILES): CC(=O)c1cc(F)cc2c3c(n(Cc4ccc(Cl)cc4)c12)C(CC(=O)O)CC3 (configuration not stated)

- pKa [1]: 9.89
Structure (SMILES): Oc1ccc(F)cc1

- pKa [1]: 8.9
Structure (SMILES): Oc1cccc(C(F)(F)F)c1

- pKa [1]: 3.79
Structure (SMILES): O=C(O)c1cccc(C(F)(F)F)c1

- half-life [19]: 672 min
Structure (SMILES): Cc1ccc(-c2cc(C(F)(F)F)nn2-c2ccc(S(N)(=O)=O)cc2)cc1 [CELECOXIB]

- half-life [6]: 102 min
- CL/F [7]: 60 mL/min/kg
Structure (SMILES): N[C@@H](CC(=O)N1CCn2c(nnc2C(F)(F)F)C1)Cc1cc(F)c(F)cc1F [SITAGLIPTIN]

- half-life [6]: 162 min
- Cmax [8]: 490 nM
- CL/F [7]: 33 mL/min/kg
Structure (SMILES): C[C@H](NC(=O)C(C)(C)Oc1ccc(C(F)(F)F)cn1)[C@@H](Cc1ccc(Cl)cc1)c1cccc(C#N)c1 [TARANABANT]
